Measured values from paper PMC8799717, “Pharmacological targeting PIKfyve and tubulin as an effective treatment strategy for double-hit lymphoma” (Cell Death Discovery, 2022).

Assays:
Assay in all cases: biochemical
Design in all cases: KINOMEscan active-site-directed competition binding panel, 468 kinases, percent of DMSO control at 1 uM
Settings in all cases: KINOMEscan binding, percent of DMSO control; read-out: Ctrl%
[1] = target: T1, ABL1(E255K)-phosphorylated (Homo sapiens, UniProt P00519, E255K)
T1 construct: phosphorylated

[2] = target: T2, ABL1(F317L)-nonphosphorylated (Homo sapiens, UniProt P00519, F317L)
T2 construct: nonphosphorylated

[3] = target: AURKA (Homo sapiens, UniProt O14965)
[4] = target: BLK (Homo sapiens, UniProt P51451)
[5] = target: CSNK1D (Homo sapiens, UniProt P48730)
[6] = target: DAPK3 (Homo sapiens, UniProt O43293)
[7] = target: ERBB4 (Homo sapiens, UniProt Q15303)
[8] = target: FLT3(D835H) (Homo sapiens, UniProt P36888, D835H)
[9] = target: GRK7 (Homo sapiens, UniProt Q8WTQ7)
[10] = target: IGF1R (Homo sapiens, UniProt P08069)
[11] = target: LRRK2(G2019S) (Homo sapiens, UniProt Q5S007, G2019S)
[12] = target: MAP4K3 (Homo sapiens, UniProt Q8IVH8)
[13] = target: NEK5 (Homo sapiens, UniProt Q6P3R8)
[14] = target: PAK1 (Homo sapiens, UniProt Q13153)
[15] = target: PIK3CA(E542K) (Homo sapiens, UniProt P42336, E542K)
[16] = target: PIK3CA(H1047L) (Homo sapiens, UniProt P42336, H1047L)
[17] = target: T3, PKAC-beta (Homo sapiens, UniProt P22694)
T3 construct: gene PRKACB

[18] = target: RIOK2 (Homo sapiens, UniProt Q9BVS4)
[19] = target: RIPK1 (Homo sapiens, UniProt Q13546)
[20] = target: RIPK4 (Homo sapiens, UniProt P57078)
[21] = target: T4, RPS6KA4(Kin.Dom.1-N-terminal) (Homo sapiens, UniProt O75676)
T4 construct: Kin.Dom.1-N-terminal

[22] = target: T5, S6K1 (Homo sapiens, UniProt P23443)
T5 construct: gene RPS6KB1

[23] = target: SNRK (Homo sapiens, UniProt Q9NRH2)
[24] = target: WNK3 (Homo sapiens, UniProt Q9BYP7)

Sequence of LRRK2(G2019S) (Q5S007 whole entry G2019S): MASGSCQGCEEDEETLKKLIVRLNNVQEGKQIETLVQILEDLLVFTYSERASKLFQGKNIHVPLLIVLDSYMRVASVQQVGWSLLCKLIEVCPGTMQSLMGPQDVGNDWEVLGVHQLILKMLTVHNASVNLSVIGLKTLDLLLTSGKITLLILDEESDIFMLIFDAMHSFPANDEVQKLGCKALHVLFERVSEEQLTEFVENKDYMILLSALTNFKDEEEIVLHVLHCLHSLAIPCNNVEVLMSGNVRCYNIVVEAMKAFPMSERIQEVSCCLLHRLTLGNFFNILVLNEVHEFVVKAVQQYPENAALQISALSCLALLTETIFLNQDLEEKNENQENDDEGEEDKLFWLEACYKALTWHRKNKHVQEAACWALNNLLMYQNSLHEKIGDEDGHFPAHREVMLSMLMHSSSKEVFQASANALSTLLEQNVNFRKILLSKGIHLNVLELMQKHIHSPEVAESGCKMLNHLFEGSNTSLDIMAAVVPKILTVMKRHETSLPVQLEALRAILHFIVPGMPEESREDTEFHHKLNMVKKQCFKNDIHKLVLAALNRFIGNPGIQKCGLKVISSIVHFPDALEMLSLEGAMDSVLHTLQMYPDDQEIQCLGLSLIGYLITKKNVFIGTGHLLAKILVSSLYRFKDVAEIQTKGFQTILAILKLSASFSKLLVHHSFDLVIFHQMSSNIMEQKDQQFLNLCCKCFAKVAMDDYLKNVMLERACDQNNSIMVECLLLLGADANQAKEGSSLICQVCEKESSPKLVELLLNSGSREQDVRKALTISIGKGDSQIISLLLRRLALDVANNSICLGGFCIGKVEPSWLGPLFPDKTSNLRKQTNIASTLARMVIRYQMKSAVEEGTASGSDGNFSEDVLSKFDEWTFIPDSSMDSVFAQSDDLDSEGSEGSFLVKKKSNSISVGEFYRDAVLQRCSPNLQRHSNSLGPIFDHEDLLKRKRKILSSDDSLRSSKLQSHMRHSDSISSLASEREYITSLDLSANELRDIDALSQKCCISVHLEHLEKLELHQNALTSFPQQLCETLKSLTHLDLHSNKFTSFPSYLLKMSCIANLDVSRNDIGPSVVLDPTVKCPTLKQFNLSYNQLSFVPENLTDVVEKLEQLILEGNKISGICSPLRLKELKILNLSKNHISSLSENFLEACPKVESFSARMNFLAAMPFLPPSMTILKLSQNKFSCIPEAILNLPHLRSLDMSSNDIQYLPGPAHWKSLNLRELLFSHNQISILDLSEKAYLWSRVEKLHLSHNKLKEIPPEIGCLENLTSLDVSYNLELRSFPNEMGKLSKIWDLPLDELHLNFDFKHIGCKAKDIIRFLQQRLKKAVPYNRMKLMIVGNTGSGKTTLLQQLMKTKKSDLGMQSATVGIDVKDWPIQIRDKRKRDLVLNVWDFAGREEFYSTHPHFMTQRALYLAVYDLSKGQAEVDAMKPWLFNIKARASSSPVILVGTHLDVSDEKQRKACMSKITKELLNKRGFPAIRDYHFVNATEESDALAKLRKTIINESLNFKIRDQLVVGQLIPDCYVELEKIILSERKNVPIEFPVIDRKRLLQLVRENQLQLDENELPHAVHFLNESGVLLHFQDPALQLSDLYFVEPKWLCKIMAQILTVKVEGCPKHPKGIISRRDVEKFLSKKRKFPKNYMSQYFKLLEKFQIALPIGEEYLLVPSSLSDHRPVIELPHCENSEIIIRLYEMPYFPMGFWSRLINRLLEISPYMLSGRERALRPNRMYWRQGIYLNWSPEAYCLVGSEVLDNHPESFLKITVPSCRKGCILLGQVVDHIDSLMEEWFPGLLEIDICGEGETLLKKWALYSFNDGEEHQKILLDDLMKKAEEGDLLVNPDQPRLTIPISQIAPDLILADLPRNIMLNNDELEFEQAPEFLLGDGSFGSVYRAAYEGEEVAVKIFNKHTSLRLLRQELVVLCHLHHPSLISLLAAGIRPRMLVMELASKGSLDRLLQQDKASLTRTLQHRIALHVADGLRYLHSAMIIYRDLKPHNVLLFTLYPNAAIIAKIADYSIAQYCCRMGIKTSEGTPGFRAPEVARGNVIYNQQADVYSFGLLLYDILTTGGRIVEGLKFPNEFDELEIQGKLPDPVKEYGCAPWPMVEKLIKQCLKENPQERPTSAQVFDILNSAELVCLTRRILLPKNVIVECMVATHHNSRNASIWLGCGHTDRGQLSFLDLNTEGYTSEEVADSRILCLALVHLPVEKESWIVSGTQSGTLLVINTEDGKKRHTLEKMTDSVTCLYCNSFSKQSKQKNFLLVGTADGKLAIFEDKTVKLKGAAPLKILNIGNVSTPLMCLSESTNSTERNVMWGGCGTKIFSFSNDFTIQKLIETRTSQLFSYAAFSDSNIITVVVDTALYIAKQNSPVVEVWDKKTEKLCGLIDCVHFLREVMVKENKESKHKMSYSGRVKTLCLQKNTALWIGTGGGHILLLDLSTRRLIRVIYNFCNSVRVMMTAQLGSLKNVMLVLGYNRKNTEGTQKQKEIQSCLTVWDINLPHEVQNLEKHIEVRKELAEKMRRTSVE
Sequence of NEK5 (Q6P3R8 whole entry): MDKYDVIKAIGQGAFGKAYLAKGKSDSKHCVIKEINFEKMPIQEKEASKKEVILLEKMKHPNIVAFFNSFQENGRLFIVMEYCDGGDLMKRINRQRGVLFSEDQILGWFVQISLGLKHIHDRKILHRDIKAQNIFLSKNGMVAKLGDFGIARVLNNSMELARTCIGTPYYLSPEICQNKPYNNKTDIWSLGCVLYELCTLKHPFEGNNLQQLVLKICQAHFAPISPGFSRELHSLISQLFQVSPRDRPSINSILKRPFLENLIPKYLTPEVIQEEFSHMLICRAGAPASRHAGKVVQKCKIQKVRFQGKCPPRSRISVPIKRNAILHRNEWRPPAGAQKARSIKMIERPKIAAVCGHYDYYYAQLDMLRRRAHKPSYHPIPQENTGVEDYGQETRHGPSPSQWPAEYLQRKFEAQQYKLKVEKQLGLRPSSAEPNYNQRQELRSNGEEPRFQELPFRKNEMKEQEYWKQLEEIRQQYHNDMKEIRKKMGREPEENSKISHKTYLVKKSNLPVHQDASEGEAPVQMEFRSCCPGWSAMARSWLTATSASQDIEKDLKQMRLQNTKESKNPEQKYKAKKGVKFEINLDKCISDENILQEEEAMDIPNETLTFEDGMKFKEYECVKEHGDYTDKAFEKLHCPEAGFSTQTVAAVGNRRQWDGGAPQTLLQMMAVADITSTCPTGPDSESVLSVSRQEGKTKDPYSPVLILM
Sequence of GRK7 (Q8WTQ7 whole entry): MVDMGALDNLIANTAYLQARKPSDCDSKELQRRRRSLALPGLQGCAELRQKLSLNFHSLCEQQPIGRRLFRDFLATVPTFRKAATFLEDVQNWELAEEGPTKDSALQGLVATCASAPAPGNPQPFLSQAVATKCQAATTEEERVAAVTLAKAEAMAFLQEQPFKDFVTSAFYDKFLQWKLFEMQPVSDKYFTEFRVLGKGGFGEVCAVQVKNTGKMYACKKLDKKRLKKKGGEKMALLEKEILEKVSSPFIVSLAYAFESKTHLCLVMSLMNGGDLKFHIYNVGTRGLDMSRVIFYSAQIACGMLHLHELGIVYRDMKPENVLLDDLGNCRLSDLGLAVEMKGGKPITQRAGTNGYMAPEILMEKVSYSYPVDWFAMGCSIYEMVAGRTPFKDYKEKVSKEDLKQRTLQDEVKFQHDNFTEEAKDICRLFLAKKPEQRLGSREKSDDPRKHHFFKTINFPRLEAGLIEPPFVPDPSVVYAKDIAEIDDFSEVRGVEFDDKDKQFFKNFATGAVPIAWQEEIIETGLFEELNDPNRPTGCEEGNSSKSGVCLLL
Sequence of PAK1 (Q13153 whole entry): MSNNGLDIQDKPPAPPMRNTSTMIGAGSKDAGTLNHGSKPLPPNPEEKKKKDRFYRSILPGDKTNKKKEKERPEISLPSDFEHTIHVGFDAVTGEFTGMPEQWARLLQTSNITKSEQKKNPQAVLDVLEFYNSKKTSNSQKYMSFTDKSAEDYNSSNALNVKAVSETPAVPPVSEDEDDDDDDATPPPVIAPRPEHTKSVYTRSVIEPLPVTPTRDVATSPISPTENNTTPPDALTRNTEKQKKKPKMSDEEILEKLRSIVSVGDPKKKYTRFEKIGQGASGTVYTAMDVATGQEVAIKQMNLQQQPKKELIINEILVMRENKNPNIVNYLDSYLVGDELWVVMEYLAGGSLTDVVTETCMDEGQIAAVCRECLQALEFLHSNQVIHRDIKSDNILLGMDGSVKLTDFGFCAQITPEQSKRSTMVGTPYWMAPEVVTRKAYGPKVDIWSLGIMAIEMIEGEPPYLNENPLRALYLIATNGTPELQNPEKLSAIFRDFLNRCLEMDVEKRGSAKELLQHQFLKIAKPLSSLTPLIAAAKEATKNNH
T4 sequence (O75676 whole entry): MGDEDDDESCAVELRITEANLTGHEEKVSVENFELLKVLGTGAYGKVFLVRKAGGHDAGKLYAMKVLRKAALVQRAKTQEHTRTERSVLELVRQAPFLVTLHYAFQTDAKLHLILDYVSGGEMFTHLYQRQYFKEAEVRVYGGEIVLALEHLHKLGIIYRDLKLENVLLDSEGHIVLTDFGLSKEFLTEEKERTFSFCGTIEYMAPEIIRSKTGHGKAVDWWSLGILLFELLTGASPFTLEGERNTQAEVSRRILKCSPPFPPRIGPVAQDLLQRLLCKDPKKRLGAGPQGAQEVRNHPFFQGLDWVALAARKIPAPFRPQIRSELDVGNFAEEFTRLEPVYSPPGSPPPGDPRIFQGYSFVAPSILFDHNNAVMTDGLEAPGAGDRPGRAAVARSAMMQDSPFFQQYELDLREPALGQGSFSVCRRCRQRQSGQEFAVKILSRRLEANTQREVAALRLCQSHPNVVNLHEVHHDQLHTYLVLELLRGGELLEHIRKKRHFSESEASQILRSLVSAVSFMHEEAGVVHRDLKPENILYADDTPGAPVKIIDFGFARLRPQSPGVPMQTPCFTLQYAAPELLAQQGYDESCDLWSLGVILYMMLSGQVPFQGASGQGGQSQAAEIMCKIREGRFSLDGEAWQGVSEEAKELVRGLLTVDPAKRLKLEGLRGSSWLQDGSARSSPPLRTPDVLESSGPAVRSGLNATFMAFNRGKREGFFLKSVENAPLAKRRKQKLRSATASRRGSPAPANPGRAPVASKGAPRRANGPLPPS

SMILES: Cc1ccc(NC(=O)c2cccc(C(F)(F)F)c2)cc1Nc1cc(-c2cccnc2)nc2[nH]ccc12 [HZX-02-059]
- remaining binding at 1 µM [1]: 77%
- remaining binding at 1 µM [2]: 60%
- remaining binding at 1 µM [3]: 100%
- remaining binding at 1 µM [4]: 91%
- remaining binding at 1 µM [5]: 96%
- remaining binding at 1 µM [6]: 96%
- remaining binding at 1 µM [7]: 86%
- remaining binding at 1 µM [8]: 92%
- remaining binding at 1 µM [9]: 80%
- remaining binding at 1 µM [10]: 92%
- remaining binding at 1 µM [11]: 92%
- remaining binding at 1 µM [12]: 97%
- remaining binding at 1 µM [13]: 100%
- remaining binding at 1 µM [14]: 94%
- remaining binding at 1 µM [15]: 56%
- remaining binding at 1 µM [16]: 56%
- remaining binding at 1 µM [17]: 95%
- remaining binding at 1 µM [18]: 91%
- remaining binding at 1 µM [19]: 100%
- remaining binding at 1 µM [20]: 75%
- remaining binding at 1 µM [21]: 93%
- remaining binding at 1 µM [22]: 95%
- remaining binding at 1 µM [23]: 71%
- remaining binding at 1 µM [24]: 100%
